Measured values taken from patent EP0725776B1, “3-ARYL-4-ALKYL AND 4,5-DIALKYL-4H-1,2,4-TRIAZOLES USEFUL AS MEMORY ENHANCERS” (MERRELL PHARMACEUTICALS INC., priority 1993, dated 1995).

Assays:
RAT CORTICAL MEMBRANES = experiment: [3H]hemicholinium-3 binding in vitro in cortical membranes after in vivo administration; parameters: species or system Male Sprague-Dawley rats; settings: n=10
From the text: The pharmacological properties of these compounds as enhancers of memory and cognition and their relative potencies may be measured through their effect on neuro-transmitters in the brain. Since drugs that block GABA inhibition in the cholinergic neurons of the basal forebrain nuclei will stimulate cholinergic firing, thus stimulating memory, the capacity of the drugs to enhance cognition can be assessed by measuring the increase in cholinergic firing rate. The increase in cholinergic firing rate is measured indirectly by measuring choline uptake or [^3H] hemicholinium-3 binding in brain cells taken from treated animals.
To test for [^3H] hemicholinium-3 binding in brain cells from the brain cortex, drugs were dissolved in saline by sonication. Male Sprague-Dawley rats were dosed i.p. and sacrificed by decapitation 60 min after injection. […] Binding was measured by incubating the tissue with varying concentrations of [^3H]hemicholinium-3 in an isotonic Tris buffer (pH 7.4) for 60 min at room temperature. […] After drying, the filters were placed in scintillation cocktail and radioactivity was determined using a Beckman scintillation counter. The values for the Kd and Bmax were determined by nonlinear curve-fitting and the average values for samples of 3 or more animals reported. […]

[1] = tested on: Diazepam-Induced Water Maze Learning Impairment; experiment: Reversal of diazepam-induced water maze learning impairment; type: in vivo, Male Sprague-Dawley rats; settings: for Mean Latency ± S.E.M., Block 1 / Mean Latency ± S.E.M., Block 2 / Mean Latency ± S.E.M., Block 3: 8 rats
From the text: The activity of compounds of formula I in enhancing spacial learning ability and cognition can be tested by studying their ability to reverse a water maze learning impairment induced by the benzodiazepine, diazepam (R. G. M. Morris, Learning and Motivation 12, 239-260 (1982); M. P. Arolfo, and J. D. Brioni, Behavioral and Neural Biology 55, 131-6 (1991); R. K. McNamara and R. W. Skelton, Pharmacology, Biochemistry & Behavior 38, 651-8 (1991); R. K. McNamara and R. W. Skelton, Psychopharmacology 107, 347-51 (1992)).
Male Sprague-Dawley rats are trained in a 120-cm diameter water-filled tank to locate a hidden platform submerged just below the surface of the water. The location of the platform remained constant, but for each trial the animal was required to swim from one of three different starting locations around the edge of the tank. There were no proximal cues in the tank, so the animal had to use a spatial mapping strategy using the distal cues around the room to navigate to the hidden platform. The animals were given 9 successive training trials during the single training day. […] After the animal found or was placed on the platform, it was allowed to stay there for 30 seconds. The next trial commenced immediately following the 30 second stay on the platform. Latency to locate the platform was recorded for each trial using a computerized video tracking system for automated acquisition of the data.
Separate treatment groups of four animals each were run in each experiment. The results of two experiments were combined so that 8 rats were tested in each treatment group. The vehicle-vehicle group received vehicle (distilled water plus Tween) i.p. 60 minutes prior to the first trial and vehicle i.p. 20 minutes prior to the first trial. The vehicle-diazepam group received vehicle i.p. 60 minutes prior to the first trial and 2.5 mg/kg diazepam i.p. 20 minutes prior to the first trial. Two groups of animals were treated with 3-(3-fluorophenyl)-4-methyl-4H-1,2,4-triazole, a compound of formula I, prior to treatment with diazepam. One group received 20 mg/kg of 3-(3-fluorophenyl)-4-methyl-4H-1,2,4-triazole i.p. 60 minutes prior to the first trial and 2.5 mg/kg diazepam i.p. 20 minutes prior to the first trial, while the second group received 40 mg/kg of 3-(3-fluorophenyl)-4-methyl-4H-1,2,4-triazole i.p. 60 minutes prior to the first trial and 2.5 mg/kg diazepam i.p. 20 minutes prior to the first trial.
The latency scores for each animal were averaged into three blocks of three trials each (one trial from each starting location). A one-way ANOVA comparing the treatment groups was computed on the scores for each trial block. If the overall ANOVA was statistically significant, comparisons between individual treatment groups were made with Fisher's PLSD test.

[2] = reported by M. Y. Mhasalkar, et al., J. Med. Chem 14(3) 260-262, (1971); cited from earlier work
[3] = 20 mg/kg i.p. 60 min prior to first trial, diazepam 2.5 mg/kg i.p. 20 min prior
[4] = 40 mg/kg i.p. 60 min prior to first trial, diazepam 2.5 mg/kg i.p. 20 min prior
[5] = vehicle i.p. 60 min prior, diazepam alone 2.5 mg/kg i.p. 20 min prior to first trial

Cn1cnnc1-c1cccc(F)c1 [3-(3-Fluorophenyl)-4-methyl-4H-1,2,4-triazole]
Bmax ± SEM (RAT CORTICAL MEMBRANES; [3H]hemicholinium-3 binding, rat cortex, dosed i.p. (1/mg/kg), sacrificed 60 min after injection): 20.4±2.48 fmol/mg Protein | % Increase in Bmax (RAT CORTICAL MEMBRANES; over saline control, (1/mg/kg) i.p., 60 min): 45% | Mean Latency ± S.E.M., Block 1 [1, 3]: 44.68 ± 2.56 s | Mean Latency ± S.E.M., Block 2 [1, 3]: 37.67 ± 6.01 s | Mean Latency ± S.E.M., Block 3 [1, 3]: 35.21 ± 6.00 s | Effect on diazepam-induced impairment ([1]; 20 mg/kg i.p. plus diazepam 2.5 mg/kg, result in words): attenuated diazepam-induced impairment | Mean Latency ± S.E.M., Block 1 [1, 4]: 58.19 ± 1.01 s | Mean Latency ± S.E.M., Block 2 [1, 4]: 52.83 ± 3.85 s | Mean Latency ± S.E.M., Block 3 [1, 4]: 53.59 ± 4.31 s | Effect on diazepam-induced impairment ([1]; 40 mg/kg i.p. plus diazepam 2.5 mg/kg, result in words): did not affect the diazepam-induced impairment

Cn1cnnc1-c1ccc(Cl)cc1 [3-(4-Chlorophenyl)-4-methyl-4H-1,2,4-triazole]
hypoglycemic activity [2]: hypoglycemic activity

CN1C(=O)CN=C(c2ccccc2)c2cc(Cl)ccc21 [diazepam, reference compound]
Effect on water maze learning ([1]; diazepam 2.5 mg/kg i.p. versus vehicle-vehicle group, p < .05 on all three blocks, result in words): significantly impaired water maze learning | Mean Latency ± S.E.M., Block 1 [1, 5]: 57.70 ± 2.30 s | Mean Latency ± S.E.M., Block 2 [1, 5]: 49.67 ± 6.06 s | Mean Latency ± S.E.M., Block 3 [1, 5]: 55.76 ± 4.24 s
